Experimental data from patent US10206937B2, “Boronic acid derivatives and therapeutic uses thereof” (Qpex Biopharma, Inc., priority 2014, dated 2019).

System: strains of Enterobacteriaceae producing various carbapenemases (class A, D and B; 169 strains)
Assay: Meropenem or tebipenem potentiation by Compounds 97 or 62 (MIC)
Type: cell-based
Protocol: The largest panel of clinical isolates expressing class A, D and B carbapenemases alone or in combination with other beta-lactamases (169 strains) was used to evaluate carbapenem potentiation activity of Compounds 97 and 62. MIC for meropenem and tebipenem of these strains were determined either alone or in the presence of Compounds 97 or 62, respectively, at a fixed concentration of 8 μg/ml in the growth media.

C[C@@H](O)[C@H]1C(=O)N2C(C(=O)O)=C(S[C@@H]3CN[C@H](C(=O)N(C)C)C3)[C@H](C)[C@H]12 [M]
Meropenem MIC alone (M) (CF1022 Citrobacter freundii SHV-12(2be), TEM-OSBL(2b), IMP-8): Y (MIC of 1 μg/mL to 10 μg/mL)
Meropenem MIC alone (M) (CF1023 Citrobacter freundii SHV-12(2be), TEM-OSBL(2b), CTX-M-3, CMY-34, NDM-1): Z (MIC of greater than 10 μg/mL)
Meropenem MIC alone (M) (EC1061 Escherichia coli NDM-1, CMY-6): Z (MIC of greater than 10 μg/mL)
Meropenem MIC alone (M) (EC1069 Escherichia coli CTX-M-27, NDM-1): Z (MIC of greater than 10 μg/mL)
Meropenem MIC alone (M) (EC1070 Escherichia coli TEM-OSBL(2b), CMY-42, NDM-5): Z (MIC of greater than 10 μg/mL)
Meropenem MIC alone (M) (EC1072 Escherichia coli CTX-M-3, NDM-1): Z (MIC of greater than 10 μg/mL)
Meropenem MIC alone (M) (ECL1045 Enterobacter cloacae VIM-1): Z (MIC of greater than 10 μg/mL)
Meropenem MIC alone (M) (ECL1055 Enterobacter cloacae KPC-3, TEM): Y (MIC of 1 μg/mL to 10 μg/mL)
Meropenem MIC alone (M) (ECL1057 Enterobacter cloacae NDM-1, TEM-1, CTX-M-15): Z (MIC of greater than 10 μg/mL)
Meropenem MIC alone (M) (ECL1084 Enterobacter cloacae CTX-M-15, ACT-16, NDM-1): Z (MIC of greater than 10 μg/mL)
Meropenem MIC alone (M) (ECL1085 Enterobacter cloacae SHV-31(2be), TEM-1(2b), CTX-M-15, NDM-1): Z (MIC of greater than 10 μg/mL)
Meropenem MIC alone (M) (ECL1087 Enterobacter cloacae VIM-1): Z (MIC of greater than 10 μg/mL)
Meropenem MIC alone (M) (ECL1090 Enterobacter cloacae TEM-1(2b), CTX-M-22, ACT-type, IMP-8): Y (MIC of 1 μg/mL to 10 μg/mL)
Meropenem MIC alone (M) (ECL1092 Enterobacter cloacae TEM-OSBL(2b), ACT-32, VIM-1): Y (MIC of 1 μg/mL to 10 μg/mL)
Meropenem MIC alone (M) (ECL1093 Enterobacter cloacae TEM-OSBL(2b), ACT-32, VIM-1): Y (MIC of 1 μg/mL to 10 μg/mL)
Meropenem MIC alone (M) (ECL1094 Enterobacter cloacae VIM-1): Z (MIC of greater than 10 μg/mL)
Meropenem MIC alone (M) (ECL1095 Enterobacter cloacae SHV-12(2be), TEM-OSBL(2b), CMY-4, ACT-16, VIM-4, OXA-48(c)): Z (MIC of greater than 10 μg/mL)
Meropenem MIC alone (M) (ECL1096 Enterobacter cloacae CMY-4, VIM-4, OXA-48(c)): Z (MIC of greater than 10 μg/mL)
Meropenem MIC alone (M) (ECL1097 Enterobacter cloacae SHV-31(2be), TEM-OSBL(2b), CTX-M-15, ACT-31, NDM-1): Z (MIC of greater than 10 μg/mL)
Meropenem MIC alone (M) (ECL1098 Enterobacter cloacae TEM-OSBL(2b), DHA-1, ACT-16, NDM-1): Z (MIC of greater than 10 μg/mL)
Meropenem MIC alone (M) (KP1054 Klebsiella pneumoniae VIM-1, SHV-11): Y (MIC of 1 μg/mL to 10 μg/mL)
Meropenem MIC alone (M) (KP1059 Klebsiella pneumoniae VIM-1, SHV-11): Z (MIC of greater than 10 μg/mL)
Meropenem MIC alone (M) (KP1061 Klebsiella pneumoniae KPC-3, TEM-1, SHV-11): Z (MIC of greater than 10 μg/mL)
Meropenem MIC alone (M) (KP1064 Klebsiella pneumoniae KPC-2, TEM-1, SHV-11): Z (MIC of greater than 10 μg/mL)
Meropenem MIC alone (M) (KP1065 Klebsiella pneumoniae VIM-1, SHV-11): Y (MIC of 1 μg/mL to 10 μg/mL)
Meropenem MIC alone (M) (KP1070 Klebsiella pneumoniae KPC-2, SHV-11, TEM-1): Z (MIC of greater than 10 μg/mL)
Meropenem MIC alone (M) (KP1074 Klebsiella pneumoniae KPC-3, SHV-11, TEM): Z (MIC of greater than 10 μg/mL)
Meropenem MIC alone (M) (KP1081 Klebsiella pneumoniae NDM-1, TEM-1, SHV-11, CMY-6, CTX-M-15): Z (MIC of greater than 10 μg/mL)
Meropenem MIC alone (M) (KP1158 Klebsiella pneumoniae KPC-2, VIM-1): Z (MIC of greater than 10 μg/mL)
Meropenem MIC alone (M) (KP1159 Klebsiella pneumoniae SHV-1(2b), CTX-M-15, IMP-4): Z (MIC of greater than 10 μg/mL)
Meropenem MIC alone (M) (KP1160 Klebsiella pneumoniae SHV-28(2be), CTX-M-15, IMP-26): Z (MIC of greater than 10 μg/mL)
Meropenem MIC alone (M) (KP1161 Klebsiella pneumoniae NDM-1): Z (MIC of greater than 10 μg/mL)
Meropenem MIC alone (M) (KP1162 Klebsiella pneumoniae SHV-1(2b), CTX-M-15, IMP-4): Z (MIC of greater than 10 μg/mL)
Meropenem MIC alone (M) (KP1163 Klebsiella pneumoniae SHV-11(2b), MOX-1, KPC-2, VIM-1): Z (MIC of greater than 10 μg/mL)
Meropenem MIC alone (M) (KP1164 Klebsiella pneumoniae SHV-12(2be), VIM-1): Z (MIC of greater than 10 μg/mL)
Meropenem MIC alone (M) (KP1165 Klebsiella pneumoniae SHV-11(2b), CTX-M-15, VIM-27): Z (MIC of greater than 10 μg/mL)
Meropenem MIC alone (M) (KP1166 Klebsiella pneumoniae SHV-5(2be), VIM-26): Z (MIC of greater than 10 μg/mL)
Meropenem MIC alone (M) (KP1168 Klebsiella pneumoniae SHV-11(2b), CTX-M-15, VIM-27): Z (MIC of greater than 10 μg/mL)
Meropenem MIC alone (M) (KP1169 Klebsiella pneumoniae SHV-11(2b), VIM-1): Z (MIC of greater than 10 μg/mL)
Meropenem MIC alone (M) (KP1170 Klebsiella pneumoniae SHV-11(2b), CTX-M-15, NDM-1): Z (MIC of greater than 10 μg/mL)
Meropenem MIC alone (M) (KP1172 Klebsiella pneumoniae SHV-31(2be), DHA-1, VIM-1): Z (MIC of greater than 10 μg/mL)
Meropenem MIC alone (M) (KP1173 Klebsiella pneumoniae TEM-33(2br), CTX-M-15, IMP-1): Y (MIC of 1 μg/mL to 10 μg/mL)
Meropenem MIC alone (M) (KP1174 Klebsiella pneumoniae CTX-M-14, IMP-1): Y (MIC of 1 μg/mL to 10 μg/mL)
Meropenem MIC alone (M) (KP1175 Klebsiella pneumoniae SHV-OSBL(2b), VIM-1): Z (MIC of greater than 10 μg/mL)
Meropenem MIC alone (M) (KP1176 Klebsiella pneumoniae SHV-12(2be), TEM-OSBL(2b), CMY-13, KPC-2, VIM-1): Z (MIC of greater than 10 μg/mL)
Meropenem MIC alone (M) (KP1177 Klebsiella pneumoniae SHV-OSBL(2b), TEM-OSBL(2b), CTX-M-15, NDM-1): Z (MIC of greater than 10 μg/mL)
Meropenem MIC alone (M) (KP1178 Klebsiella pneumoniae SHV-OSBL(2b), TEM-OSBL(2b), CTX-M-15, NDM-1): Z (MIC of greater than 10 μg/mL)
Meropenem MIC alone (M) (KP1179 Klebsiella pneumoniae SHV-12(2be), TEM-OSBL(2b), CTX-M-15, NDM-7): Z (MIC of greater than 10 μg/mL)
Meropenem MIC alone (M) (KP1180 Klebsiella pneumoniae SHV-OSBL(2b), TEM-OSBL(2b), CTX-M-15, DHA-1, IMP-26): Y (MIC of 1 μg/mL to 10 μg/mL)
Meropenem MIC alone (M) (KP1181 Klebsiella pneumoniae SHV-OSBL(2b), CTX-M-15, IMP-26): Z (MIC of greater than 10 μg/mL)
